Results from patent US20200131144A1, “AMINE OR (THIO)AMIDE CONTAINING LXR MODULATORS” (Phenex-FXR GmbH, priority 2017, published 2020).

Assays:
[1] = target: T1, LXRβ ligand-binding domain (LBD) (Homo sapiens, UniProt P55055, INS174Q); experiment: LXR Gal4 reporter transient transfection assay, mammalian two-hybrid, LBD-M2H Gal4β; type: cell-based; conditions: HEK293 cells; inverse agonist unless *
T1 construct: or LXR (amino acids 156-461); expressed in transfected cells; host or cells: HEK293
T1 sequence (P55055 with tags, fused parts or gaps INS174Q limits assumed): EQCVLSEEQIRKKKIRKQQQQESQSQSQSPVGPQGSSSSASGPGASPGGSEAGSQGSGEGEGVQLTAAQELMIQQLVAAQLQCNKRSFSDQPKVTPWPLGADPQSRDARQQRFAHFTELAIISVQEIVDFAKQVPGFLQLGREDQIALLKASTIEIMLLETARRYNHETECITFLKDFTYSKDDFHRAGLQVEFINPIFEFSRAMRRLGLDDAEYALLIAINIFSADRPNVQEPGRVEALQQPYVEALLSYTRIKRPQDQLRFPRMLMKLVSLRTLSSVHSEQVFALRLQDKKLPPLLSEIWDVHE
How it was run: (§1)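 Mammalian two-hybrid read-out: interaction of LXRα or LXRβ (full length or ligand-binding domain, NFkB activation-domain fusions) with GAL4-fused SRC1 or NCoR domains drives GAL4-responsive firefly luciferase in HEK293 cells, normalised by Renilla cotransfection. Compounds given 4 h after transfection, ≤0.2% vehicle, cells lysed after 16 h.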

[2] = target: T2, LXRα ligand-binding domain (LBD) (Homo sapiens, UniProt Q13133); experiment: LXR Gal4 reporter transient transfection assay, mammalian two-hybrid, LBD-M2H Gal4α; type: cell-based; conditions: HEK293 cells; inverse agonist unless *
T2 construct: expressed in transfected cells; host or cells: HEK293
T2 sequence (Q13133 155-447): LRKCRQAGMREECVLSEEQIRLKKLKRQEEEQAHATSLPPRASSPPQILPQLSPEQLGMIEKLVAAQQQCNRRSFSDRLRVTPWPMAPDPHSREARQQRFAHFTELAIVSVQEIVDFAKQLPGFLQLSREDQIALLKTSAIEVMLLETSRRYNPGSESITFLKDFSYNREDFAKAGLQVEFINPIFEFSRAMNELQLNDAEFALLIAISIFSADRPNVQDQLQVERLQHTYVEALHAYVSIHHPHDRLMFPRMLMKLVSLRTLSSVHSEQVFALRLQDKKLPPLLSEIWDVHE
How it was run: as §1

[3] = Pharmacokinetics in mice after single oral dosing, blood and liver exposure by LC-MS; type: in vivo, mice (C57/bl6/J); conditions: single oral dose 20 mg/kg; for Kp at 4 h / Kp at 12 h / Kp at 24 h: male, C57/bl6/J, mouse, liver/blood, read-out: liver/blood ratio
Protocol: The pharmacokinetics of the compounds was assessed in mice after single dosing and oral administrations. Blood and liver exposure was measured via LC-MS.
The study design was as follows:
Animals: C57/bl6/J (Janvier) males Diet: standard rodent chow Dose: 20 mg/kg Animal handling: animals were withdrawn from food at least 12 h before administration Design: single dose oral administration, n=3 animals per group Sacrifice: at stated time point (4, 12 or 24 h) after administration Bioanalytics: LC-MS of liver and blood samples

SMILES	EC50 [1] [µM]	EC50 [2] [µM]	Kp at 4 h ([3]; time point 4 h)	blood/plasma exposure ([3]; time point 4 h) [µM]	liver exposure ([3]; time point 4 h) [µM]	Kp at 12 h ([3]; time point 12 h)	blood/plasma exposure ([3]; time point 12 h) [µM]	liver exposure ([3]; time point 12 h) [µM]	Kp at 24 h ([3]; time point 24 h)	blood/plasma exposure ([3]; time point 24 h) [µM]	liver exposure ([3]; time point 24 h) [µM]
Cc1cc(C)c(C(=O)N(Cc2ccc(-c3cccc(C(C)(C)C(=O)O)c3)cc2)Cc2ccc(C(F)(F)F)o2)c(C)c1 [10/1]	< 0.1	0.1 to 1									
Cc1ccc2ccccc2c1C(=O)N(Cc1ccc(-c2cccc([C@@H](C)C(=O)O)c2)cc1)Cc1ccc(C(F)(F)F)o1 [10/5]			45	1.06	47.9						
Cc1ccc2ccccc2c1C(=O)N(Cc1ccc(-c2cc(F)c(CO)c(S(=O)(=O)CC(=O)O)c2)cc1)Cc1ccc(C(F)(F)F)o1 [22/8]	< 0.1	< 0.1	19	1.3	23	27	0.15	4.1			
CCc1nc2ccccc2c(C(=O)N(Cc2ccc(-c3cccc(C(C)(C)C(=O)O)c3)cc2)Cc2ccc(C(F)(F)F)o2)c1C [27/43]						49	0.03	1.3			
Cc1ccc2ccccc2c1C(=O)N(Cc1ccc(C(F)(F)F)o1)Cc1ncc(-c2cccc(C(C)(C)C(=O)O)c2)cc1Cl [27/78]			116	0.35	40.9						
Cc1ccc2ccccc2c1C(=O)N(Cc1ccc(-c2cccc(S(=O)(=O)CC(=O)O)c2)cc1)Cc1ccc(C(F)(F)F)o1 [Example 9]	0.1 to 1	0.1 to 1	72	0.18	12.7				25	0.00	0.10

Second part, the compound after the results:

EC50 [1] [µM]	EC50 [2] [µM]	Kp at 4 h ([3]; time point 4 h)	blood/plasma exposure ([3]; time point 4 h) [µM]	liver exposure ([3]; time point 4 h) [µM]	Kp at 12 h ([3]; time point 12 h)	blood/plasma exposure ([3]; time point 12 h) [µM]	liver exposure ([3]; time point 12 h) [µM]	Kp at 24 h ([3]; time point 24 h)	blood/plasma exposure ([3]; time point 24 h) [µM]	liver exposure ([3]; time point 24 h) [µM]	SMILES
					129	0.01	1.3				Cc1ccc2ccccc2c1C(=O)N(Cc1ccc(-c2cccc(C(C)(O)C(=O)O)c2)cc1)Cc1ccc(C(F)(F)F)o1 (centres unmarked) [27/10]
		5.5	16	89	3.3	6.4	21	3.6	0.75	2.7	Cc1ccc2ccccc2c1C(=O)N(Cc1ccc(-c2cccc(C(C)(C)C(=O)O)c2)cc1)Cc1ccc(C(F)(F)F)o1 [27/26]
		844	0.05	38.8							CCOC(=O)c1ccc(CN(Cc2ccc(-c3cccc(C(C)(C)C(=O)O)c3)cc2)C(=O)c2c(C)ccc3ccccc23)o1 [27/28]
< 0.1	< 0.1	11	0.96	10.3	5.7	0.21	1.2	2.9	0.04	0.13	Cc1ccc2ccccc2c1CN(Cc1ccc(-c2cccc(C(C)(C)C(=O)O)c2)cc1)Cc1ccc(C(F)(F)F)o1 [Example 24, 2-Methyl-2-(4′-((((2-methylnaphthalen-1-yl)methyl)((5-(trifluoromethyl)furan-2-yl)methyl)amino)methyl)-[1,1′-biphenyl]-3-yl)propanoic acid]
